These results are taken from US20250197372A1 (priority 2020, published 2025).

What all share (assay type): biochemical
Assay [1] addresses T1, recombinant alpha-glucosidase II (murine full-length glucosidase II, alpha and beta subunits, Glu 2) (Mus musculus, UniProt Q8BHN3).
T1 construct: made in house; host or cells: HEK-293T cells transduced with BacMam viruses (75% alpha, 25% beta); protein harvested from culture supernatant
The experiment in a line: Alpha-glucosidase II assay (4-methylumbelliferyl-alpha-D-pyranoside substrate, fluorescence). As to conditions: Glucosidase 2; read-out: Glu2 IC50.

Assay [2] concerns the target rat sucrase (partially purified alpha-glucosidase from intestinal rat powder) (Rattus norvegicus, UniProt P23739). The experiment in a line: Intestinal alpha-glucosidase assay, sucrose substrate (Glucose GO Kit). As for the experimental part:
(§1) Intestinal alpha-glucosidases (rat maltase and sucrase): Intestinal alpha-glucosidases act upon 1,4-alpha-glucoside bonds, breaking down disaccharides to glucose. To perform this assay, partially purified alpha-glucosidase from intestinal rat powder was incubated for 60 minutes at 37° C. with multiple dilutions of test compounds. Maltose or Sucrose respectively was then introduced as substrate to the mixture and incubated for 30 minutes at 37° C. The reaction was stopped by a 5-minute incubation at 90° C. and the resultant glucose production is detected using Sigma's Glucose GO Kit. Percent inhibition was then plotted as a function of concentration for each test compound. The IC50 was determined using a 4-PL curve fit and serves as the measure of relative inhibition of each test compound (see Table 3).

Assay [3] deals with T2, recombinant alpha-glucosidase I (human full-length glucosidase I, Glu 1) (Homo sapiens, UniProt Q13724).
T2 construct: 6-His (C); made in house; host or cells: HEK-293T cells transduced with BacMam virus (virus raised in Sf9)
T2 sequence (Q13724 1-837): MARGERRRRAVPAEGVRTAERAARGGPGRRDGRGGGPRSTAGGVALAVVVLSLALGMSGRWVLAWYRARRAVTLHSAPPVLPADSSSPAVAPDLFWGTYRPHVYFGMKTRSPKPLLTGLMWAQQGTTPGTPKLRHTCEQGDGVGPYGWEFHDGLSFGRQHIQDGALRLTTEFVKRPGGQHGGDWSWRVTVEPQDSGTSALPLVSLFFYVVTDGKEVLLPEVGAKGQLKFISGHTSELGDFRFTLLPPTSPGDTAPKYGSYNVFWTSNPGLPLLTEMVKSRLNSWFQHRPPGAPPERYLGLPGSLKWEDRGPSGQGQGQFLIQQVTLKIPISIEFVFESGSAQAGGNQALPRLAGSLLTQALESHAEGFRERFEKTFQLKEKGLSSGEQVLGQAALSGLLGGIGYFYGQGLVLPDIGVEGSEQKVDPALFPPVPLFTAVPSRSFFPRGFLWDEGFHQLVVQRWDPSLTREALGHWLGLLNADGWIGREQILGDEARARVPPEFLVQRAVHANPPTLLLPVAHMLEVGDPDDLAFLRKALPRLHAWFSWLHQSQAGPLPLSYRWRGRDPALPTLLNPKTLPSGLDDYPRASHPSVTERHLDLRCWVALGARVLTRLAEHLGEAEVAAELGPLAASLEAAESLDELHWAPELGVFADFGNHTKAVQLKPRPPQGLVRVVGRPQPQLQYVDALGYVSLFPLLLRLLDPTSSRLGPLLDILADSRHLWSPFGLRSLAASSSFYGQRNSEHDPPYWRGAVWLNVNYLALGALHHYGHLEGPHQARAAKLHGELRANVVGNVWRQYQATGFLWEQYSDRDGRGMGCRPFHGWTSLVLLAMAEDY
The experiment in a line: Alpha-glucosidase I assay (Amplex Red glucose detection, synthetic trisaccharide substrate). The settings on record: Glucosidase 1; read-out: Glu 1 IC50. The text has this: Preparation of Human Full-length Glucosidase I: The amino acid sequence for human full-length glucosidase I was obtained from UniProt (Q13724). […] The entry vector was cloned into Kemp Proteins' BacMam Destination vector and transformed into chemically competent DH10Bac E. coli cells to produce recombinant glucosidase I bacmids. Bacmid isolates were obtained following two rounds of blue-white screening and they were transfected into Sf9 cells cultivated in serum-free medium (Thermo Fisher Scientific). Four days post-transfection the culture supernatants containing virus were harvested and filter sterilized. […] A multiplicity of infection (MOI, ratio of virus to cells) of 4 was selected. Soluble glucosidase I was detected by anti-His western blots in the soluble cell extract following extraction with 1% V/V NP40 for 30 minutes at 0° C. Productions and purifications of glucosidase I were carried out at scales ranging from 1-liter to 10-liters. […] In another example production at the 10-liter scale was performed in stirred-tank bioreactors at 27° C. and 80 rpm with dissolved oxygen level at 50% of oxygen in air and pH between 7.0 and 7.2. Cells were transduced at MOI of 4 and the cell pellet was harvested at 48 hours post-transduction using centrifugation.
The pellet from a 10-liter culture was lysed by resuspending the pellet into 1-liter of 50 mM NaH2PO4—H2O+300 mM NaCl+10 mM Imidazole+1 mM PMSF+1% V/V NP40 pH 8. The suspension was incubated on ice for 30 minutes and clarified at 500×g and 4° C. The supernatant was collected and clarified at 20,000×g for 30 minutes at 4° C. and the supernatant was collected and filtered through a 0.2 micron filter. […] The column was washed with 20 column volumes (CV) of 50 mM NaH2PO4-H2O+300 mM NaCl+10 mM Imidazole pH 8 and eluted using a linear gradient of 0-60% 50 mM NaH2PO4-H2O+300 mM NaCl+500 mM Imidazole pH 8 over 90 minutes. at 5 mL per minute. Fractions (25 mL) were collected and analyzed by SDS PAGE and Western Blot (reducing anti-His). Fractions containing purified glucosidase I were pooled and dialyzed into storage buffer (20 mM Tris+300 mM NaCl+50 mM L-arginine+10 mM EDTA+0.01% V/V Tween 80 pH 7.5). The final material was filter sterilized and stored at 4° C. and the working dilution confirmed by a use-test in the indicated assay conditions prior to use.
Alpha-glucosidase I Assay: The assay was performed by incubating recombinant alpha-glucosidase I enzyme with multiple dilutions of test compounds for 60 minutes at 37° C. A synthetic trisaccharide substrate analog was then introduced to the mixture for 90 minutes at 37° C. The reaction was then stopped with 1.5M Tris (pH 8). In the absence of inhibition, the terminal glucose of the substrate was hydrolyzed by the enzyme. The D-glucose product was detected using Amplex Red Glucose/Glucose Oxidase Assay Kit (Invitrogen) following the manufacturer's directions where glucose oxidase reacts with D-glucose to form D-gluconolactone and H2O2 which then reacts with the Amplex Red reagent to generate a red-fluorescent oxidation product (560 nm, excitation; 590 nm, emission). […] Percent inhibition is plotted as a function of concentration for each compound, compared to control reactions. The IC50 was determined using a 4-PL curve fit and serves as a measure of relative inhibitory activity of each test compound (see Table 3).

The target in assay [4] is rat maltase (partially purified alpha-glucosidase from intestinal rat powder). The experiment in a line: Intestinal alpha-glucosidase assay, maltose substrate (Glucose GO Kit). How it is done: as §1
Assay [5] concerns the target recombinant human GAA (acid alpha-glucosidase) (Homo sapiens, UniProt P10253). The experiment in a line: Acid alpha-glucosidase (GAA) assay (4-methylumbelliferyl-alpha-D-pyranoside substrate, fluorescence). How it is done: Acid alpha-glucosidase (GAA): To analyze inhibitory effects of a test compound, commercially available recombinant human GAA was incubated with multiple dilutions of test compound for 60 minutes at 37° C. 4-methylumbelliferyl-alpha-D-pyranoside was then introduced to the mixture as the substrate. 1,4-methyllumbelliferone is generated, and after an incubation for 20 minutes at 37° C., the reaction was stopped with the stop solution (0.5M glycine 0.3M NaOH pH 10). 1,4-methyllumbelliferone is detected by fluorescence (excitation at 365 nm, emission at 440 nm). Relative fluorescence compared to untreated enzymatic activity and test compound concentration is plotted as a function of percent inhibition. The IC50 is determined using a 4-PL curve fit as the measure of relative inhibitory activity of each test compound (see Table 3).

T1 sequence (O08795 15-521): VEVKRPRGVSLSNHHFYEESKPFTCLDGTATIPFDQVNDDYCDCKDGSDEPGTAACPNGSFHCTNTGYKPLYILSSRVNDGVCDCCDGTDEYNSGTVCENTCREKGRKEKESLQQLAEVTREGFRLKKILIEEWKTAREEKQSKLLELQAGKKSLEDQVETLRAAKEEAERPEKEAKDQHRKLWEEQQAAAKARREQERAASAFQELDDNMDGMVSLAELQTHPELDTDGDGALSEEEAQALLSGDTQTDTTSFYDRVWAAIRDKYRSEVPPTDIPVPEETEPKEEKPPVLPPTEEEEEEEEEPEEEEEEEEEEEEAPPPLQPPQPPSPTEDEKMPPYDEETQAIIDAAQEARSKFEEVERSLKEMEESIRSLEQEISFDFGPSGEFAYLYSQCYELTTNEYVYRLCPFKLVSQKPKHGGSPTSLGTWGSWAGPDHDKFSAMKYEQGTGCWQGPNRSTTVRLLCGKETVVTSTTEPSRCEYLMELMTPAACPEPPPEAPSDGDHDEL
T1 sequence (Q8BHN3 33-944): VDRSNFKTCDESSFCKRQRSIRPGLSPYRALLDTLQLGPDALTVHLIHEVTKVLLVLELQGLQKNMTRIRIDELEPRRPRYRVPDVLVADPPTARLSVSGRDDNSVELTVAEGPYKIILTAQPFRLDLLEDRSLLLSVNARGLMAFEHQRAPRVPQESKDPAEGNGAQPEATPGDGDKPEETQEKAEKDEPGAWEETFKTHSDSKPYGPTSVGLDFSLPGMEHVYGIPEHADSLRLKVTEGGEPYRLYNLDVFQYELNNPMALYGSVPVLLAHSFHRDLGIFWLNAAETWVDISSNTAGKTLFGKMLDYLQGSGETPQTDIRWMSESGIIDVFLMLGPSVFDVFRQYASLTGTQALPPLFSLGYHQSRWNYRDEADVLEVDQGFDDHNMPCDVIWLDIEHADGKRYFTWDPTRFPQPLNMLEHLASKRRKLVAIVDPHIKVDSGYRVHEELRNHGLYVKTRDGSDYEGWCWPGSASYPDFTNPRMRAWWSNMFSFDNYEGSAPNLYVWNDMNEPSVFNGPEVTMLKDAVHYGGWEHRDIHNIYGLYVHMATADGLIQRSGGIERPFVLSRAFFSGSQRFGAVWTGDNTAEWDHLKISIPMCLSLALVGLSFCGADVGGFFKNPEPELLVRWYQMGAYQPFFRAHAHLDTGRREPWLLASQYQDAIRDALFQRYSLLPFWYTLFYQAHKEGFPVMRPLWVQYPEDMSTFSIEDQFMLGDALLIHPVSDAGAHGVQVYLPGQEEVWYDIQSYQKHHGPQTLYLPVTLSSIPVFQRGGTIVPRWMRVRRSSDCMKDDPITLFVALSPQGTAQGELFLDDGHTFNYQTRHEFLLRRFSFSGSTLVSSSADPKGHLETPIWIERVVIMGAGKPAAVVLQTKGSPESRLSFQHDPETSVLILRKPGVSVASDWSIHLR
Sequence of rat sucrase (partially purified alpha-glucosidase from intestinal rat powder) (P23739 whole entry): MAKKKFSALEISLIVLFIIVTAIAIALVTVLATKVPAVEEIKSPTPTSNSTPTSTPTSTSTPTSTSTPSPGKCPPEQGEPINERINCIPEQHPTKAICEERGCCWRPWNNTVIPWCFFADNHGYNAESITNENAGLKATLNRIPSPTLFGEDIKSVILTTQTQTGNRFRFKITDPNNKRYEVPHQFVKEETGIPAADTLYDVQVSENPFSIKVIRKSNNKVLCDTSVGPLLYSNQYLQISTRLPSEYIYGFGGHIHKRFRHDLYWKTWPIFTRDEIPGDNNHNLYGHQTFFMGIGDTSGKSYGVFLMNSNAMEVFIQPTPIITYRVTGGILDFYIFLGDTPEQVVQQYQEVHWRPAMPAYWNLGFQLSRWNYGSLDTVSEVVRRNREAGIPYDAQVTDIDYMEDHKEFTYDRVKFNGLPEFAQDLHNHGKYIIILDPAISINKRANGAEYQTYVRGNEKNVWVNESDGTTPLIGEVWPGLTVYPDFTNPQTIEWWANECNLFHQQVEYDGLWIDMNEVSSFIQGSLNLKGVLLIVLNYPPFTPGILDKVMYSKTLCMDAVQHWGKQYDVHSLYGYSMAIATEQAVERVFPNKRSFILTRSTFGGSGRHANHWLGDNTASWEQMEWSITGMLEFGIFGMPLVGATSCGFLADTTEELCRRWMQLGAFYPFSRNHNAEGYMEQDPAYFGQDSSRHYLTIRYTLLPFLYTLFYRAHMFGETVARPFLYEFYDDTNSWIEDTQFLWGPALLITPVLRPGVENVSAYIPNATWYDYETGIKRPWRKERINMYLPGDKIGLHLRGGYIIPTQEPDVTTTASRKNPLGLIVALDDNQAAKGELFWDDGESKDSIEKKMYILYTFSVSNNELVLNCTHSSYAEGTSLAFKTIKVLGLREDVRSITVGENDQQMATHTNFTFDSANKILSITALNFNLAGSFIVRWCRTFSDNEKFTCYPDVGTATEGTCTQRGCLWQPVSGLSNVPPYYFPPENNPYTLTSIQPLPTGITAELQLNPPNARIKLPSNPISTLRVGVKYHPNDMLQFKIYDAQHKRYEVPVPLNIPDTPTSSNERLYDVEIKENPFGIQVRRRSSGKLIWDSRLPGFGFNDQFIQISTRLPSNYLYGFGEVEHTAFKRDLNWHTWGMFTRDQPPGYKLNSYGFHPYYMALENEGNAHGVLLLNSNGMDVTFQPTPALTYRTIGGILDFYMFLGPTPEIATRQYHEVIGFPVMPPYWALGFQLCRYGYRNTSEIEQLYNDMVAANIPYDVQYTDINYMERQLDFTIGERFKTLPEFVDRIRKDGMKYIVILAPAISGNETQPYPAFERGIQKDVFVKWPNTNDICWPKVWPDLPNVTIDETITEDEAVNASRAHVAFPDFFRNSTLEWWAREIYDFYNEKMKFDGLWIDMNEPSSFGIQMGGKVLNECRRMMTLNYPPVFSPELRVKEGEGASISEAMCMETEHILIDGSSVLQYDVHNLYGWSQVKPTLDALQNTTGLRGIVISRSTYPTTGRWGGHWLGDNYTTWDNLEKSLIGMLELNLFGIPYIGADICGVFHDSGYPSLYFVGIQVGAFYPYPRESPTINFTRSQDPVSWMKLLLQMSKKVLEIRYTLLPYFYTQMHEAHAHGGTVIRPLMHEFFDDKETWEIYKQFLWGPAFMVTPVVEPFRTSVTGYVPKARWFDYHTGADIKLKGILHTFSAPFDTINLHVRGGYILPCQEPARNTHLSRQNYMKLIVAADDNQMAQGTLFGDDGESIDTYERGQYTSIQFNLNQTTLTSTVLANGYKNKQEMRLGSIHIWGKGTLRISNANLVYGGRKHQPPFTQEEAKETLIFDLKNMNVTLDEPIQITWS

Usually IC50 stands for the concentration needed to halve the response being measured. In the case of `OC[C@@H]1[C@@H](O)[C@H](O)[C@@H](O)CN1Cc1ccc(CNc2ccc(-c3cccnn3)cc2)cc1` [Compound 1095, (2R,3R,4R,5S)-2-(hydroxymethyl)-1-{[4-({[4-(pyridazin-3-yl)phenyl]amino}methyl)phenyl]methyl}piperidine-3,4,5-triol], the IC50 in assay [1] amounted to 657 nM; in assay [2], 13 nM; in assay [3], 12 nM; in assay [4], 11 nM; in assay [5], 243 nM.
Turning to `O=[N+]([O-])c1cc(CN2CCCO2)ccc1NCc1ccc(CN2C[C@H](O)[C@@H](O)[C@H](O)[C@H]2CO)cc1` [Compound 1098], the IC50 is 83 nM in assay [1]; 40 nM in assay [2]; 23 nM in assay [3]; 13 nM in assay [4]; 175 nM in assay [5].
With `[N-]=[N+]=Nc1ccc(NCC2COC(CN3C[C@H](O)[C@@H](O)[C@H](O)[C@H]3CO)CO2)c([N+](=O)[O-])c1` (stereo partly drawn) [Compound 1280, (2R,3R,4R,5S)-1-[(5-{[(4-azido-2-nitrophenyl)amino]methyl}-1,4-dioxan-2-yl)methyl]-2-(hydroxymethyl)piperidine-3,4,5-triol], the IC50 amounted to 194 nM in assay [1] and 1460 nM in assay [3].
